Reference: patent publication US20220000887A1, “REPURPOSED ANTIBIOTICS FOR NON-NUCLEAR GENOTOXIC CHEMOTHERAPY AND PHARMACEUTICAL COMPOSITION FOR ANTI-CANCER CONTAINING THE SAME” (Korea University Research and Business Foundation, priority 2019, published 2022)
“And” between values parts separate entries of the source, which are not always exact repeats. Equal values may be shown once. “Also recorded” adds a separate entry of the source. Read-outs that look alike come from different tables or passages of the source.

Columns and labels:
[1] = test system: MDA-MB-231 metastatic breast cancer cells; test: Cell viability analysis (LDH assay), MDA-MB-231; conditions: for apoptotic effect on MDA-MB-231 cells: 48 h treatment
[2] = test system: nuclear DNA and mitochondrial DNA
Description: (§2) RNA was extracted from each sample using TRIzol solution. cDNA synthesized from the isolated RNA or intracellular genomic DNA extracted using a genomic DNA isolation kit was used for real-time polymerase chain reaction (PCR).
(§3) The real-time PCR data were normalized by the expression of glyceraldehyde-3-phosphate dehydrogenase (GAPDH). Relative expression levels were expressed as fold changes over the control. The results (mean±SE) were obtained in triplicate and a p value <0.05 was taken to be statistically significant.

[3] = test system: nuclear DNA and mitochondrial DNA; test: Damage to nuclear DNA and mitochondrial DNA (FIG. 8)
Description: as §2, §3

A549 (lung cancer cells) = test: Cell viability analysis (LDH assay), A549; assay type: cell-based, human; conditions: FIG. 3
Description: (§1) Particularly, the inventive anticancer drugs had IC50 values of 23.77 μM and 27.05 μM against A549 and SW620, respectively.

[4] = test system: mitochondrial genomic DNA; test: Taq1 assay for damage to mitochondrial genomic DNA (FIG. 10); assay type: cell-based
MDA-MB-231 cells [5] = test: Mitochondrial membrane potential measurement (JC-1 assay); assay type: cell-based, human; conditions: 10 μM, 0, 6, 12, 24 h, FIG. 7
Description: Mitochondrial membrane potential differences were measured. To this end, the MDA-MB-231 cells were treated with 10 μM Ester MT-CFX for different periods of time (0, 6, 12, and 24 h) and cultured for indicated periods of time. Cells were harvested, washed once with ice-cold PBS, and cultured with […] 5,5′,6,6′-tetrachloro-1,1′,3,3′-tetraethyl-benzimidazolyl carbocyanine chloride (JC-1) at 37° C. for 20 min. The JC-1 stained cells were centrifuged at 1,300 g for 3 min and washed twice with ice-cold PBS. Mitochondrial membrane potentials of JC-1 monomer (green channel) and aggregate (red channel) were measured in different wavelength bands.

[6] = test system: nuclear and mitochondrial DNA; test: Real-time PCR for nuclear and mitochondrial DNA damage lesions (FIG. 11); assay type: cell-based
Description: as §2, §3

MDA-MB-231 cells [7] = test: FACS measurement of Annexin-V positive apoptotic cells; assay type: cell-based, human; conditions: 10 μM, 0, 6, 12, 24 h, Annexin V assay, FIG. 7
Description: Annexin-V positive apoptotic cells were analyzed by flow cytometry. To this end, the MDA-MB-231 cells were treated with 10 μM Ester MT-CFX for different periods of time (0, 6, 12, and 24 h) and cultured for indicated periods of time. Cells were harvested, washed twice with ice-cold PBS, placed in BD FACS tubes (10^6/mL), and cultured with 10 μg/mL annexin V in PBS containing 10% FBS at room temperature for 30 min. Subsequently, cells were washed with ice-cold PBS and annexin V fluorescence was measured in the FL-1 channel using a FACSCalibur flow cytometer (BD, USA).

[8] = test system: DU145 (prostate cancer cells); test: Cell viability analysis (LDH assay), DU145; assay type: cell-based, human; conditions: FIG. 3
Description: as §1

MDA-MB-231 xenograft = test: In vivo mouse xenograft model; conditions: intravenous three times a week, 12 weeks, BALB/c-nu-nu mice
Description: Five-week-old immunodeficient male BALB/c-nu-nu mice (Orient bio, Korea) weighing between 18-20 g were used. The animals were bred and housed in a facility maintaining a humidity of 30-40% and a temperature of 22±1° C. on a 12-h light/dark cycle. All animal experiments were approved by the Ethics Committee for Animal Studies at Korea University. Animals were treated in accordance with the protocol approved by the Ethics Committee.
MDA-MB-231 cells (5×10^6 cells) were injected subcutaneously into 6-week-old immunodeficient BALB/c-nu-nu mice weighing between 18-20 g to establish tumor-bearing mouse models. […] The lengths of the long and short axes of tumors were measured weekly. 12 weeks after the first injection of each compound, the mice were sacrificed and tumor samples were collected for further analysis. […] Each asterisk (*) indicates a significant difference to the corresponding control.

[9] = test system: mitochondrial DNA synthesis; test: Mitochondrial DNA synthesis (FIG. 5); assay type: cell-based
Description: as §2, §3

[10] = test system: SW620 (colon cancer cells); test: Cell viability analysis (LDH assay), SW620; assay type: cell-based, human; conditions: FIG. 3
Description: as §1

MDA-MB-231 cells [11] = test: Reactive oxidative species (ROS) measurement (Amplex Red, CM-H2DCFDA); assay type: cell-based, human; conditions: 10 μM, 48 h, FIG. 4
Description: The activity of hydrogen peroxide (H2O2) produced in cells was evaluated by detection with Amplex® Red reagent (10-acetyl-3,7-dihydroxyphenoxazine; Thermo Fisher scientific). Here, Amplex® Red reagent reacts with H2O2 in a stoichiometric ratio of 1:1 in the presence of peroxidase in cells to produce resorufin as a red fluorescent product. The fluorescence of resorufin can be analyzed at excitation and emission wavelengths of 571 nm and 581 nm, respectively. The MDA-MB-231 cell line was seeded into a 96-well plate and treated with 10 μM Ester MT-CFX for 48 h. Thereafter, the amount of hydrogen peroxide was measured. A reaction mixture of 50 μM Amplex® Red reagent and 0.1 U/mL HRP was prepared in Krebs-Ringer phosphate buffer (145 mM NaCl, 5.7 mM sodium phosphate, 4.86 mM KCl, 0.54 mM CaCl2, 1.22 mM MgSO4, 5.5 mM glucose, pH 7.35). 100 μL of the reaction mixture was added to each plate well, followed by incubation at 37° C. for 10 min. The brightness of fluorescence was measured at 530-560 nm excitation and 590 nm emission wavelengths using a microplate reader. The MDA-MB-231 cell line was seeded into a confocal dish. […] The fluorescence of reactive oxygen species produced in cells was imaged by confocal laser scanning microscopy at 492-495 nm excitation and 517-527 nm emission wavelengths.

[12] = test system: PC3 (prostate cancer cells); test: Cell viability analysis (LDH assay), PC3; assay type: cell-based, human; conditions: FIG. 3
Description: as §1

With `O=C(O)c1cn(C2CC2)c2cc(N3CCNCC3)c(F)cc2c1=O` [ciprofloxacin, reference compound] the “apoptotic effect on MDA-MB-231 cells” value ([1]; LDH assay) was “little or no apoptotic effect”.
In the case of `Cl.O=C(OCCCCCC[P+](c1ccccc1)(c1ccccc1)c1ccccc1)c1cn(C2CC2)c2cc(N3CCNCC3)c(F)cc2c1=O.[Cl-]` [Ester Mt-CFX], the “toxicity to nuclear genes” value [2] is reported as “no toxicity to nuclear genes”, the “toxicity to mitochondrial genes” value [3] is reported as “selective toxicity to mitochondrial genes” and the “apoptotic effects on A549” value (A549 (lung cancer cells)) is reported as “apoptotic effects”. The “apoptotic effect on MDA-MB-231 cells” value ([1]; LDH assay) was “strong apoptotic effect; also recorded: apoptotic effects”, the IC50 ([1]; MDA-MB-231, 48 h treatment, LDH assay) was ~15 µM and 20 to 30 µM and the “apoptotic activity against the cancer cells, fold higher than that of ciprofloxacin” value ([1]; MDA-MB-231, ratio of IC50 values) was ~55,000 fold. The “mitochondria targeting (damage to mitochondrial genomic DNA)” value [4] was “targeted mitochondria”, the “mitochondrial membrane potential differences” value (MDA-MB-231 cells [5]) was “reduction of mitochondrial membrane potential differences” and the “mitochondrial mutations (DNA damage lesions)” value [6] was “induced mitochondrial mutations”. The apoptosis over time (MDA-MB-231 cells [7]) was “occurrence of apoptosis over time”, the “apoptotic effects on DU145” value [8] was “apoptotic effects” and the “cancer volume compared to control” value (MDA-MB-231 xenograft) was “significant reduction in cancer volume”. For the same molecule, the “mitochondrial DNA synthesis” value [9] was “inhibition of mitochondrial DNA synthesis”, the “apoptotic effects on SW620” value [10] was “apoptotic effects” and the “production of reactive oxygen species” value (MDA-MB-231 cells [11]) was “reactive oxygen species are produced”. For the same molecule, the “apoptotic effects on PC3” value [12] was “apoptotic effects”.
With `COc1cccc2c1C(=O)c1c(O)c3c(c(O)c1C2=O)C[C@@](O)(C(=O)CO)C[C@@H]3O[C@H]1C[C@H](N)[C@H](O)[C@H](C)O1` [doxorubicin, reference compound] the “toxicity to nuclear genes” value [3] was “strong toxicity to nuclear genes”.
In the case of `O=C(NCCCCCC[P+](c1ccccc1)(c1ccccc1)c1ccccc1)c1cn(C2CC2)c2cc(N3CCNCC3)c(F)cc2c1=O.[Cl-]` [Amide Mt-CFX], the “apoptotic effects on A549” value (A549 (lung cancer cells)) is reported as “apoptotic effects”, the “apoptotic effect on MDA-MB-231 cells” value ([1]; LDH assay) is reported as “enhanced apoptotic effect; also recorded: apoptotic effects” and the “apoptotic effects on DU145” value [8] is reported as “apoptotic effects”. The “apoptotic effects on SW620” value [10] was “apoptotic effects” and the “apoptotic effects on PC3” value [12] was “apoptotic effects”.
